Reference: US10179913B2, “MicroRNA-328 anti-sense composition and therapeutic use” (KAOHSIUNG MEDICAL UNIVERSITY, priority 2015, dated 2019)
Marks after values point to notes of the source that are not given here.

What was measured:
miR-328 = assay: In vitro inhibition of miR-328 expression by antisense oligonucleotides transfected into ARPE-19 RPE cells (qRT-PCR, normalized to U6); assay type: cell-based, human; conditions: for inhibitory effect on miR-328 expression: RPE cells (ARPE-19), Lipofectamine 2000 transfection, 24 hours
Method: Cell Culture, Treatments, and Transfection
An RPE cell line called “ARPE-19” was grown in Dulbecco's modified Eagle's medium (DMEM)/F12 medium. The cell line was grown with 1% penicillin/streptomycin and 10% heat-inactivated fetal bovine serum (FBS) at 37° C. in a humidified atmosphere of 95% air/[…] carbon dioxide (CO2). To conduct the transfection experiments, cells were seeded into a 12-well plate at a density of 1×10^5 cells/well. After achieving 70% confluence in a well, antisense oligonucleotides (concentrations of 30, 50 and 100 nM) were transfected with Lipofectamine 2000 (Invitrogen) according to the manufacturer's instructions. After 24 hours of incubation, cells were lysed for further studies.
Detect the Inhibition of miR-328 Expression by Antisense Oligonucleotides
Total RNA was extracted from cultured cells using Trizol according to the manufacturer's instructions. RNA purity was checked using A260/A280 readings. miR-328 was first reversed transcribed to miR-328 cDNA using the following procedure: 5 ng of RNA was reverse transcribed with miR-328 specific primer and MultiScribe reverse transcriptase kit (Applied Biosystems). To measure the miR-328 expression, quantitative real-time PCR was performed on an ABI 7500 real-time PCR machine (Applied Biosystems) with miR-328 specific probe according to manufacturer's instructions (Applied Biosystems). The inhibitory effect by antisense oligonucleotides was evaluated by measuring the level of miR-328 cDNA by quantitative real-time PCR. The expression level of miR-328 was normalized to that of a small non-coding nuclear RNA U6 as the internal control.

[1] = system: myopia-induced C57BL/6J mice; assay: Example 4: efficacy in myopia-induced mice, delta axial length; assay type: in vivo; conditions: for activity in treating myopia in mice (in words): decrease of average axial length
Method: The 21 days old C57BL/6J mice were purchased from the National Laboratory Animal Center, Taiwan. All animal experiments were in compliance with the ARVO Statement for the Use of Animals in Ophthalmic and Vision Research. The procedure of myopia induction is described briefly as the following: Right eyes of the 23 days old mice were covered to induce myopia (i.e. nearsightedness) and the left eyes were uncovered. Then the right eyes of the myopia-induced mice were treated with 30 μL of saline (i.e. control group), DNA16mer, DNA17mer, LNA403, LNA404, or LNA405, at 1 μM on 30th, 37th and 44th day. Mice were sacrificed on 51th day and the eyes were collected. The isolated eyes were photographed under a dissection microscope and the axial lengths were measured using […] Myopia (nearsightedness) causes elongation of axial length, which is the major pathological change in myopia. The difference of axial length (i.e. delta axial length) between the covered right eye and the non-covered left eye of the same mouse indicates the severity of myopia. Statistical evaluation was done by using Mann-Whitney U test. Analysis with p-values<0.05 being considered significant.

[2] = system: myopia-induced C57BL/6J mice; assay: Example 5: validation of DNA 16mer and LNA 403 versus atropine in myopia-induced mice; assay type: in vivo; conditions: 1 μM
Method: The 21 days old C57BL/6J mice were purchased from the National Laboratory Animal Center, Taiwan. All animal experiments were in compliance with the ARVO Statement for the Use of Animals in Ophthalmic and Vision Research. The procedure of myopia induction is described briefly as the following: Right eyes of the 23 days old mice were covered for 4 weeks to induce myopia (i.e. nearsightedness) and the left eyes were uncovered. Then the right eyes of the myopia-induced mice were treated with 30 μL of saline (i.e. negative control group), 1% atropine (i.e. positive control group), DNA16mer or LNA403 at 1 μM on 30th, 37th and 44th day. Mice were sacrificed on 51th day and the eyes were collected. The isolated eyes were photographed under a dissection microscope and the axial lengths were measured using imageJ and a proprietary software for automatic measure. Myopia (nearsightedness) causes elongation of axial length, which is the major pathological change in myopia. The difference of axial length (i.e. delta axial length) between the covered right eye and the non-covered left eye of the same mouse indicates the severity of myopia. Statistical evaluation was done by using Mann-Whitney U test. Analysis with p-values <0.05 being considered significant.

[3] = system: myopia-induced C57BL/6J mice; assay: Example 6: confirmation of DNA 16mer by a CRO in myopia-induced mice; assay type: in vivo; conditions: for left eye axial, mm Mean: left eye uncovered
Excerpt: The procedure of myopia induction is: The 21 days old C57BL/6J mice were purchased from the National Laboratory Animal Center, Taiwan. All animal experiments were in compliance with the ARVO Statement for the Use of Animals in Ophthalmic and Vision Research. The procedure of myopia induction is described briefly as the following: Right eyes of the 23 days old mice were covered for 4 weeks to induce myopia and the left eyes were uncovered. Then the right eyes of the myopia-induced mice were treated with […], of saline (i.e. negative control group), 1% atropine (i.e. positive control group), 10 nM, 100 nM, and 1 μM of DNA 16mer on 30th, 37th and 44th day. Mice were sacrificed on 51th day and the eyes were collected. The isolated eyes were photographed under a dissection microscope and the axial lengths were measured using imageJ and a proprietary software for automatic measure. Myopia (nearsightedness) causes elongation of axial length, which is the major pathological change in myopia. The difference of axial length (i.e. delta axial length) between the covered right eye and the non-covered left eye of the same mouse indicates the severity of myopia.

myopic pigmented rabbits = assay: Example 7: DNA 16mer in myopic pigmented rabbits, delta axial length by A-scan; assay type: in vivo, rabbit; conditions: 20 μL to right eye every other day from day 35, AXL of day 61
Method: The procedure of myopia induction: The 3 days old pigmented rabbits were purchased from the DA-ZONG livestock farm, Taiwan. All animal experiments were in compliance with the ARVO Statement for the Use of Animals in Ophthalmic and Vision Research. On the age of 7 days, the right eye of the rabbit was covered for 8 weeks to induce myopia, and the left eye left uncovered. The axial lengths (AXL) of both eyes were measured by A-scan (Sonomed®, PACSCAN 300A, USA) once a week since day 21. We defined myopia as right eye AXL is longer than left eye AXL by 0.2 mm or longer on day 35. If a rabbit reached this defined criterion, the right eye of such a myopic rabbit was treated with […], of saline (i.e. control group) or DNA16mer (20 μL) at 10 μM or 50 uM every other day since day 35 till day 63. The final AXL measured on day 61 was used to obtain to calculate the difference between right AXL and left AXL (i.e. delta AXL). If there is no therapeutic effect, the delta AXL will be a positive value.

Safety in animal studies = assay type: in vivo

In the case of “5′-AGGGCAGAGAGGGCCA-3′ (DNA, backbone not given here) [DNA 16mer, anti-sense miR-328 oligodeoxyribonucleotide]”, the “inhibitory effect on miR-328 expression” value (miR-328; 30 nM) is reported as 39%, the “inhibitory effect on miR-328 expression” value (miR-328; 50 nM) is reported as 35% and the “inhibitory effect on miR-328 expression” value (miR-328; 100 nM) is reported as 49%. The “inhibition of miR-328 expression in vitro (in words)” value (miR-328; RPE cells, 30, 50 and 100 nM) was “inhibited”, the “reduction of delta axial length compared to control group” value ([1]; 1 μM on day 30, 37 and 44, versus saline) was 0.077 mm and the “activity in treating myopia in mice (in words)” value ([1]; 1 μM, listed as 16mer) was “exhibited an activity for treating myopia”. The “activity in treating myopia in mice (in words)” value ([1]; 1 μM, listed as DNA16mer) was “effective in treating myopia in mice”, the “average delta axial length compared with control animals (in words)” value ([1]; 1 μM, versus saline, Mann-Whitney U test) was “statistically significantly smaller” and the “Delta axial length, mm mean (SD)” value ([1]; right (myopia) minus left eye, 1 μM, 30 μL to right eye on day 30, 37 and 44, eyes collected day 51) was −0.059 (0.061)* mm. For the same substance, the “efficacy in reducing elongation of eyeball compared with 1% atropine (in words)” value [2] was “more effective than 1% atropine”, the “Mean of delta AXL” value ([2]; right eye covered 4 weeks, 30 μL on day 30, 37 and 44, day 51) was −0.055 and the “Delta axial length Mean” value ([3]; 10 nM) was −0.056. For the same substance, the “right eye axial, mm Mean” value ([3]; 10 nM to right (myopia) eye) was 3.083 mm, the “left eye axial, mm Mean” value ([3]; 10 nM to right eye) was 3.139 mm and the “Delta axial length Mean” value ([3]; 100 nM) was −0.069. For the same substance, the “right eye axial, mm Mean” value ([3]; 100 nM to right (myopia) eye) was 3.023 mm, the “left eye axial, mm Mean” value ([3]; 100 nM to right eye) was 3.092 mm and the “Delta axial length Mean” value ([3]; 1 μM) was −0.058. The “right eye axial, mm Mean” value ([3]; 1 μM to right (myopia) eye) was 3.052 mm, the “left eye axial, mm Mean” value ([3]; 1 μM to right eye) was 3.110 mm and the “Delta axial length Mean” value (myopic pigmented rabbits; 10 μM) was −0.234. For the same substance, the “Delta axial length Mean” value (myopic pigmented rabbits; 50 μM) was −0.370 and the “safety in animal studies (in words)” value (Safety in animal studies) was “safe”.
